The test system of experiment [1] is Mycobacterium tuberculosis. Nature of the experiment: Antitubercular activity against multidrug-resistant Mycobacterium tuberculosis clinical isolate 16,121. It counts as functional.
In experiment [2] the test system is Mycobacterium tuberculosis. Briefly: Antitubercular activity against multidrug-resistant Mycobacterium tuberculosis clinical isolate 16,030. The experiment is classed as functional.

In the case of `CN(CC#Cc1cscn1)c1nc(=O)c2cc(C(F)(F)F)cc([N+](=O)[O-])c2s1`, the MIC in experiment [1] and in experiment [2] was under 0.016 µg/mL throughout.

Take `CO[C@H]1/C=C/O[C@@]2(C)Oc3c(C)c(O)c4c(O)c(c(/C=N/N5CCN(C)CC5)c(O)c4c3C2=O)NC(=O)/C(C)=C\C=C\[C@H](C)[C@H](O)[C@@H](C)[C@@H](O)[C@@H](C)[C@H](OC(C)=O)[C@@H]1C` [RIFAMPIN]: the MIC in experiment [1] and in experiment [2] was over 10 µg/mL throughout.

Regarding `NNC(=O)c1ccncc1` [ISONIAZID], the MIC in experiment [1] and in experiment [2] was over 10 µg/mL throughout.

For `CN(CC#Cc1ccccc1)c1nc(=O)c2cc(C(F)(F)F)cc([N+](=O)[O-])c2s1`, the MIC in experiment [1] and in experiment [2] was under 0.016 µg/mL each time.

Consider `CN(CC#CC1CCCCC1)c1nc(=O)c2cc(C(F)(F)F)cc([N+](=O)[O-])c2s1`, for which the minimal inhibitory concentration (MIC) in experiment [1] and in experiment [2] was under 0.016 µg/mL each time.

Source of the values: ChEMBL document CHEMBL5528009, “Benzothiozinone derivatives with anti-tubercular Activity-Further side chain investigation” (Eur J Med Chem, 2024).
